From patent publication US20140039056A1, “BROMFENAC ORGANIC SALTS AND PREPARATION METHOD, COMPOSITION AND USE THEREOF” (SHENYANG XINGQI PHARMACEUTICAL CO., LTD., priority 2010, published 2014)
Counter-ions that a name gives are not always drawn. Like-named read-outs stand apart in the source and are kept apart here.

What was measured:
[1] = Chemical stability in aqueous state (25° C., dark); format: physicochemical; settings: for degradation products and content changes in aqueous solution: dark conditions, in words
[2] = test system: swelling of foot caused by egg white in rats; experiment: Test of effects on swelling of foot caused by egg white in rats; format: in vivo; settings: for effect on voix pedis swelling caused by egg white in rats: within 0.5 hours to 6 hours, versus physiological saline control group, in words
Procedure: Test grouping: 40 rats, bodyweight 200-220 g, randomly divided into 4 groups, 10 rats per group, i.e., physiological saline control group, bromfenac sodium group, bromfenac diethylamine salt group, and bromfenac trometamol salt group.
The rats of each test group were administered with physiological saline, solution of bromfenac sodium, solution of bromfenac diethylamine salt and solution of bromfenac trometamol salt, twice per day via lavage in lavage dose of 50 mL/Kg, for consecutive 7 days, before the last administration, volumes of voix pedis of normal right and left hindfeet of each rat were measured, and the measurement was performed by blood capillary volume method. The linedrawing position at ankle joint of rat was adjusted so that the volumes of voix pedis of right and left hindfeet were about 1 mL, 0.5 hours after the last administration, 0.1 mL of newly prepared 10% egg white liquid was subcutaneously injected to voix pedis of right and left hindfeet of rats respectively, and the volumes of voix pedis of right and left hindfeet of rats were measured again at 0.5, 1, 2, 4, 6 hours after injection of egg white, and swelling rate was calculated (voix pedis swelling rate=voix pedis volume at different time after injection of egg white−voix pedis volume at the same side before injection of egg white/voix pedis volume at the same side before injection of egg white), and the results were shown in Table 5.

[3] = cited from earlier work
[4] = analgesic effect; cited from earlier work
[5] = 0.5 hours after injection of egg white
[6] = 0.5 hours after injection of egg white, lavage 50 mL/Kg twice per day for 7 days
[7] = 1.0 hours after injection of egg white
[8] = 2.0 hours after injection of egg white
[9] = 4.0 hours after injection of egg white
[10] = 6.0 hours after injection of egg white
[11] = Normal rats (before egg white), lavage 50 mL/Kg twice per day for 7 days

Structure (SMILES)	content (HPLC), aqueous state ([1]; 25° C., dark, 1 week) [%]	content (HPLC), aqueous state ([1]; 25° C., dark, 2 weeks) [%]	content (HPLC), aqueous state ([1]; 25° C., dark, 3 weeks) [%]	content (HPLC), aqueous state ([1]; Initial) [%]	degradation products and content changes in aqueous solution [1]	voix pedis swelling rate [2, 5]	voix pedis volume [2, 6] [mL]	voix pedis swelling rate [2, 7]	voix pedis volume [2, 7] [mL]	voix pedis swelling rate [2, 8]	voix pedis volume [2, 8] [mL]	voix pedis swelling rate [2, 9]	voix pedis volume [2, 9] [mL]	voix pedis swelling rate [2, 10]	voix pedis volume [2, 10] [mL]	voix pedis swelling rate ([2]; Normal rats)	voix pedis volume [2, 11] [mL]	effect on voix pedis swelling caused by egg white in rats [2]	also measured
Nc1c(CC(=O)O)cccc1C(=O)c1ccc(Br)cc1 [Bromfenac diethylamine salt, bromfenac diethylamine salt]	99.5	99.4	99.2	99.5	not observed	(0.65 ± 0.08)	1.61 ± 0.08	(0.58 ± 0.08)	1.55 ± 0.09	(0.41 ± 0.08)	1.38 ± 0.06	(0.23 ± 0.05)	1.21 ± 0.06	(0.08 ± 0.06)	1.06 ± 0.08	(0.65 ± 0.08)	1.61 ± 0.08	significantly inhibit	–
Nc1c(CC(=O)[O-])cccc1C(=O)c1ccc(Br)cc1.[Na+] [Bromfenac sodium, 2-amino-3-(4-bromobenzoyl)phenylacetic acid sodium salt sesquialter hydrate, reference compound]	99.5	99.4	99.1	99.6	not observed	(0.58 ± 0.06)	1.56 ± 0.11	(0.53 ± 0.07)	1.51 ± 0.10	(0.40 ± 0.09)	1.39 ± 0.11	(0.22 ± 0.08)	1.20 ± 0.10	(0.06 ± 0.05)	1.04 ± 0.06	(0.58 ± 0.06)	1.51 ± 0.11	significantly inhibit	solubility ([3]; 0.1M hydrochloric acid solution): almost insoluble; solubility ([3]; acetone): almost insoluble; solubility ([3]; acetonitrile): almost insoluble; solubility ([3]; ethanol): slight soluble; solubility ([3]; methanol): soluble; solubility ([3]; water): soluble; potency relative to other non-steroid anti-inflammatory agents [4]: 10 times
Nc1c(CC(=O)O)cccc1C(=O)c1ccc(Br)cc1 [Bromfenac trometamol salt, bromfenac trometamol salt]	–	99.3	99.1	–	not observed	(0.63 ± 0.09)	1.59 ± 0.09	(0.57 ± 0.10)	1.54 ± 0.11	(0.44 ± 0.13)	1.41 ± 0.13	(0.20 ± 0.10)	1.24 ± 0.10	(0.10 ± 0.07)	1.08 ± 0.08	(0.63 ± 0.09)	1.59 ± 0.09	significantly inhibit	–
